What all share (assay): Drug affinity chromatography with c-ponatinib and LC-MS/MS (ponatinib interactome)
What all share (format): binding

Assay [1] deals with T1, proteins of U2OS cell lysate (Homo sapiens, UniProt P25705).
T1 construct: Proteins enriched by c-ponatinib from U2OS cell lysate; endogenous in cells; host or cells: U2OS cell lysate
The following applies: ATP5A1, ATP synthase subunit alpha, mitochondrial. Put shortly: (§1)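 U2OS cell lysate in NP-40 lysis buffer (2 mg protein per pulldown) was incubated with amine-derivatized NHS beads for 2 h at 4 °C. Bound proteins were washed, eluted with 100 mM formic acid, reduced, alkylated and trypsin-digested, then identified by nano-UPLC–MS/MS on Orbitrap instruments with a 60 min gradient.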

Assay [2] has as its target T2, proteins of U2OS cell lysate (Homo sapiens, UniProt P29692).
T2 construct: Proteins enriched by c-ponatinib from U2OS cell lysate; endogenous in cells; host or cells: U2OS cell lysate
The following applies: EEF1D, Elongation factor 1-delta. Put shortly: as §1

The target in assay [3] is T3, proteins of U2OS cell lysate (Homo sapiens, UniProt P51665).
T3 construct: Proteins enriched by c-ponatinib from U2OS cell lysate; endogenous in cells; host or cells: U2OS cell lysate
T3 sequence (P51665 whole entry): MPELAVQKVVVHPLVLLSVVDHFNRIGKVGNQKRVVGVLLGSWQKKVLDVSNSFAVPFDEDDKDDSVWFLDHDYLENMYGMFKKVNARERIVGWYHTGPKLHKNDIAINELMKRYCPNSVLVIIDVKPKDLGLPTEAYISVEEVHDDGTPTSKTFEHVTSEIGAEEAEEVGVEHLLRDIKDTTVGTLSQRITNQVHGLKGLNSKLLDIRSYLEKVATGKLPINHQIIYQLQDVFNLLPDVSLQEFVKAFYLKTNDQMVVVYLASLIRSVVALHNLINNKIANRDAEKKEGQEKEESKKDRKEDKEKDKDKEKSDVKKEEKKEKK
The following applies: PSMD7, 26S proteasome non-ATPase regulatory subunit 7. Put shortly:
as §1

In assay [4] the target is T4, proteins of U2OS cell lysate (Homo sapiens, UniProt Q13561).
T4 construct: Proteins enriched by c-ponatinib from U2OS cell lysate; endogenous in cells; host or cells: U2OS cell lysate
T4 sequence (Q13561 whole entry): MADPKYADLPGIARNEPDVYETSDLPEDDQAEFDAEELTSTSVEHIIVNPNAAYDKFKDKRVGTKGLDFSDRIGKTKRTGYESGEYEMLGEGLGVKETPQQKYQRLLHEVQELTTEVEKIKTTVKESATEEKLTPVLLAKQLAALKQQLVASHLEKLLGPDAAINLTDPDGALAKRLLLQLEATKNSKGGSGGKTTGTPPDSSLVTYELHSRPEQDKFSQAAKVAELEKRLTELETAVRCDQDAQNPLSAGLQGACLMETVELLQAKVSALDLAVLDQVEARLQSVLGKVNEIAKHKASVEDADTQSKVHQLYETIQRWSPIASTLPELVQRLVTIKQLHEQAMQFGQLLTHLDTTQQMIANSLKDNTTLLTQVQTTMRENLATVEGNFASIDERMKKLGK
The settings on record: DCTN2, Dynactin subunit 2. Put shortly:
as §1

The target in assay [5] is T5, proteins of U2OS cell lysate (Homo sapiens, UniProt Q14315).
T5 construct: Proteins enriched by c-ponatinib from U2OS cell lysate; endogenous in cells; host or cells: U2OS cell lysate
The settings on record: FLNC, Filamin-C. The method, boiled down:
as §1

For assay [6], the target named is T6, proteins of U2OS cell lysate (Homo sapiens, UniProt Q16181).
T6 construct: Proteins enriched by c-ponatinib from U2OS cell lysate; endogenous in cells; host or cells: U2OS cell lysate
T6 sequence (Q16181 whole entry): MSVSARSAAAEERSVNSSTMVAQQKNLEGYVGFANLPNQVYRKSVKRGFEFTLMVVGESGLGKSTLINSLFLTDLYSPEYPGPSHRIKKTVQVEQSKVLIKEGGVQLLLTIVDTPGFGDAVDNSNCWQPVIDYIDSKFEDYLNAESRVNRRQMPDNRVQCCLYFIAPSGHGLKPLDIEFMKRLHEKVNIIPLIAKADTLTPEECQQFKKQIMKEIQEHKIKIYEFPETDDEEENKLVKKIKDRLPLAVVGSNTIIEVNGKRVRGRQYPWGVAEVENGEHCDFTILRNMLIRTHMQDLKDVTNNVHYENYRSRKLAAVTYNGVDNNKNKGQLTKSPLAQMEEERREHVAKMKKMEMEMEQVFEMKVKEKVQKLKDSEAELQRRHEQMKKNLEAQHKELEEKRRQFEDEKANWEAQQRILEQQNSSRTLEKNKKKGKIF
The settings on record: SEPT7;DKFZp586I031, Septin-7. The method, boiled down: as §1

Assay [7] has as its target T7, proteins of U2OS cell lysate (Homo sapiens, UniProt Q9ULV4).
T7 construct: Proteins enriched by c-ponatinib from U2OS cell lysate; endogenous in cells; host or cells: U2OS cell lysate
The following applies: CORO1C, Coronin-1C. The method, boiled down: as §1

In assay [8] the target is T8, proteins of U2OS cell lysate (Homo sapiens, UniProt Q9Y4K4).
T8 construct: Proteins enriched by c-ponatinib from U2OS cell lysate; endogenous in cells; host or cells: U2OS cell lysate
T8 sequence (Q9Y4K4 whole entry): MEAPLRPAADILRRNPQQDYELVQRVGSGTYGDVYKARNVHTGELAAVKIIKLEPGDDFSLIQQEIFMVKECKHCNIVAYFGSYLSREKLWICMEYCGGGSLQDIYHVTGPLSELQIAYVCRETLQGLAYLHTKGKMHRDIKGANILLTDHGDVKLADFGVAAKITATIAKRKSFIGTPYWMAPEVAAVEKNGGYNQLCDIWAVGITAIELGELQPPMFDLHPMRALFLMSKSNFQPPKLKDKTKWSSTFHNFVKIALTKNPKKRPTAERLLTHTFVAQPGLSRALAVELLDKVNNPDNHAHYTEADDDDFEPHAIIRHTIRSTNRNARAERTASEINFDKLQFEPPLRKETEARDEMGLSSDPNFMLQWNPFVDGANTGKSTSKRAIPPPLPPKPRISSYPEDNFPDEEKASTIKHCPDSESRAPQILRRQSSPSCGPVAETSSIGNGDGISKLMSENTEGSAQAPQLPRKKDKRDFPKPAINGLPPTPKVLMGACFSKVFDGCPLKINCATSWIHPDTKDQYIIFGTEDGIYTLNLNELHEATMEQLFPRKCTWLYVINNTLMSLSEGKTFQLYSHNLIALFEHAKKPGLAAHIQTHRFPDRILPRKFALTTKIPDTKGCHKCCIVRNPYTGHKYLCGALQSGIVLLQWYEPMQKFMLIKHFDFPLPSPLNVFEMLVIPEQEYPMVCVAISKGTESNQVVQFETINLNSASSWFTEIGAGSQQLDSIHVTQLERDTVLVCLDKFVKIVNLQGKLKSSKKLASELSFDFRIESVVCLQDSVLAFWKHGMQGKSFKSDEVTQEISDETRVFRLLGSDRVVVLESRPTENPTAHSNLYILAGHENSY
The settings on record: MAP4K5, Mitogen-activated protein kinase kinase kinase kinase 5. Put shortly: as §1

T7 sequence (Q9ULV4 whole entry): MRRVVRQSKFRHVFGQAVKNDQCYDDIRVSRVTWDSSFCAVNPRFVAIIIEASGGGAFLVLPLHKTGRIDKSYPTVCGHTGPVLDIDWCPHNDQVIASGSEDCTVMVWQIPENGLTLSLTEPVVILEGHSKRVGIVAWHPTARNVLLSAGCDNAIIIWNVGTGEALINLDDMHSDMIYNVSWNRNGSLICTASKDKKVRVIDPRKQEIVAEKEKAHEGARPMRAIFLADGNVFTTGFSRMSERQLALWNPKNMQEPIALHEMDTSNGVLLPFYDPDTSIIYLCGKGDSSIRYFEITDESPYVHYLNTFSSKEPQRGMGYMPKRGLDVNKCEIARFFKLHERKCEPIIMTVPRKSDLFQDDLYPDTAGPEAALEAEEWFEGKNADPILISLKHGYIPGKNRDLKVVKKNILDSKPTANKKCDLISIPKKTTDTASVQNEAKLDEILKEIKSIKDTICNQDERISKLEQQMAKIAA
T1 sequence (P25705 44-553): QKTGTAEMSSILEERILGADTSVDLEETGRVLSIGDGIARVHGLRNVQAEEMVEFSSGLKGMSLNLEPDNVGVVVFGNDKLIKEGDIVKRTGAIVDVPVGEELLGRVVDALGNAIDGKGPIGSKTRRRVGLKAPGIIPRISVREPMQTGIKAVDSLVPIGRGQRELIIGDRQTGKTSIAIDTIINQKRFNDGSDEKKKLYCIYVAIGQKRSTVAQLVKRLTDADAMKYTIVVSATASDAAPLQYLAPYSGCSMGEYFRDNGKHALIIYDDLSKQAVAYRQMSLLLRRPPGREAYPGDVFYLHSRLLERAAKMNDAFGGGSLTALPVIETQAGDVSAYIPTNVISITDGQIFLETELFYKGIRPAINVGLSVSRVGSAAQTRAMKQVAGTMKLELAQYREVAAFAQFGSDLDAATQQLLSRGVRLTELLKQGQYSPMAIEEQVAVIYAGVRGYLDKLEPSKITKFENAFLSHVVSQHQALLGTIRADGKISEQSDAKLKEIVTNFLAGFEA
T2 sequence (P29692 whole entry): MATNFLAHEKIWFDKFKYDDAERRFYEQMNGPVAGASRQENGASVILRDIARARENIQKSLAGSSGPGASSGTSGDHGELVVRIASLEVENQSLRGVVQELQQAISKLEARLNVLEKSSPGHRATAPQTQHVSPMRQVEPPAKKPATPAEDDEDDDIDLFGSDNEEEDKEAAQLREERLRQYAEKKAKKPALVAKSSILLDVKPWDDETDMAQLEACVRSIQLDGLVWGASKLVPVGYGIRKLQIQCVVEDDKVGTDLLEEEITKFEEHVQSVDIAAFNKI

Consider `Cc1ccc(C(=O)Nc2ccc(CN3CCN(C)CC3)c(C(F)(F)F)c2)cc1C#Cc1cnc2cccnn12` [PON], for which the “Average LFQ PON_WT” value stood at 26.7182 in assay [1]; 24.6531 in assay [2]; 21.0889 in assay [3]; 23.2725 in assay [4]; 26.6007 in assay [5]; 23.204 in assay [6]. For the same compound, the “Average LFQ PON_WT” value in assay [7] was 24.6024; in assay [8], 19.9263.

The values are drawn from PMC6120666 (The EMBO Journal, 2018).
